Experimental data taken from article PMC12486440, “Design, synthesis, and in silico studies of new benzofuran–pyrazole hybrids as multi-kinase inhibitors with potential antiproliferative activity” (RSC Advances, 2025).

How the values were obtained:
[1] = tested on: Colon cancer subpanel; assay: NCI 60 subpanel summary; format: cell-based, human
[2] = tested on: Melanoma subpanel; assay: NCI 60 subpanel summary; format: cell-based, human
[3] = tested on: Ovarian cancer subpanel; assay: NCI 60 subpanel summary; format: cell-based, human
[4] = tested on: Renal cancer subpanel; assay: NCI 60 subpanel summary; format: cell-based, human
[5] = tested on: MCF-7 cancer cells; assay: Cell cycle analysis (PI flow cytometry); format: cell-based, human; conditions: GI50 concentration 2.75 μM, 48 h
Protocol: More details are presented in the SI.
Given that 3d has emerged as a well-balanced active compound that functions as both an anticancer agent and a multi-targeting protein kinase suppressor, it was of interest to gain a deeper understanding of how 3d inhibits the growth of cancer cells. A propidium iodide (PI) staining experiment was performed in this study to look at its effect on cell cycle distribution and apoptosis activation.[81,82]
This blocked cell cycle passage at the G0–G1 stage can stop cells from dividing and growing, which is in line with that shown by other tests about the ability of compound 3d to stop cell division and growth (Fig. 3). […]
minute reaction, 50 μl of Kinase-Glo Max reagent was added to each well. […] 10) Luminescence was measured using the microplate reader. […]
The protocol of the experiment depends on the dilution of the enzyme, substrate, ATP, and inhibitors in kinase buffer. […] Then, luminescence (integration time 0.5–1 second) was recorded according to the manufacturer’s instructions. […]
Further exploration of the cytotoxic activity of compound 3d was performed using propidium iodide (PI) flow cytomertric analysis to measure the extent of PI that binds to DNA of dead cells with permeable plasma membranes to determine cell cycle status in tissue culture quantitate cell death at all cell phases. […]

[6] = tested on: EKVX
[7] = tested on: NCI-H522
[8] = tested on: HCT-116
[9] = tested on: SW-620
[10] = tested on: SF-268
[11] = tested on: SF-295
[12] = tested on: U251
[13] = tested on: MALME-3M
[14] = tested on: M14
[15] = tested on: UACC-257
[16] = tested on: OVCAR-5
[17] = tested on: OVCAR-8
[18] = tested on: NCI/ADR-RES; conditions: Homo sapiens, NCI/ADR-RES
[19] = tested on: RXF 393
[20] = tested on: UO-31; conditions: Homo sapiens, UO-31
[21] = tested on: DU-145
[22] = tested on: MCF7
[23] = Homo sapiens, subpanel mean graph midpoint, read-out: MG-MID (GI50)
[24] = full panel MG-MID / subpanel MG-MID
[25] = single dose 10 μM, non-small lung carcinoma
[26] = single dose 10 μM, colon cancer
[27] = single dose 10 μM, ovarian carcinoma

In the case of `c1ccc(-n2cc(C3CC(c4nc5ccccc5[nH]4)=NN3)c(-c3cc4ccccc4o3)n2)cc1` (stereo not drawn) [3d, 3-(Benzofuran-2-yl)-4-(3-(1H-benzo[d]imidazol-2-yl)-4,5-dihydro-1H-pyrazol-5-yl)-1-phenyl-1H-pyrazole], the GI50 [1, 23] is reported as 5.02 µM, the Selectivity index [1, 24] is reported as 0.83 and the GI50 [2, 23] is reported as 3.92 µM. The Selectivity index [2, 24] was 1.07, the GI50 [3, 23] was 4.32 µM and the Selectivity index [3, 24] was 0.97. The GI50 [4, 23] was 4.93 µM, the Selectivity index [4, 24] was 0.85 and the “cell percentage in the G2/M stage” value ([5]; control […]) was 15.9%. The “percentage of cells in the G0–G1 phase” value ([5]; untreated 48.39%) was 61.03%, the GI50 ([6]; Homo sapiens, EKVX) was 2.69 µM and the GI% [6, 25] was 78.25%. The GI50 ([7]; Homo sapiens, NCI-H522) was 3.48 µM, the GI% [7, 25] was 96.77% and the GI50 ([8]; Homo sapiens, HCT-116) was 5.46 µM. For the same compound, the GI% [8, 26] was 76.76%, the GI50 ([9]; Homo sapiens, SW-620) was 5.95 µM and the GI% [9, 26] was 76.92%. It also gave a GI50 ([10]; Homo sapiens, SF-268) of 4.51 µM, a GI% ([10]; single dose 10 μM, CNS cancer) of 72.21% and a GI50 ([11]; Homo sapiens, SF-295) of 2.59 µM. It also gave a GI% ([11]; single dose 10 μM, CNS cancer) of 84.73%, a GI50 ([12]; Homo sapiens, U-251) of 3.72 µM and a GI% ([12]; single dose 10 μM, CNS cancer) of 85.69%. The GI50 ([13]; Homo sapiens, Malme-3M) was 6.19 µM, the GI% ([13]; single dose 10 μM, melanoma) was 81.85% and the GI50 ([14]; Homo sapiens, M14) was 3.22 µM. For the same compound, the GI% ([14]; single dose 10 μM, melanoma) was 83.05%, the GI50 ([15]; Homo sapiens, UACC-257) was 6.24 µM and the GI% ([15]; single dose 10 μM, melanoma) was 79.15%. For the same compound, the GI50 ([16]; Homo sapiens, OVCAR-5) was 5.52 µM, the GI% [16, 27] was 66.23% and the GI50 ([17]; Homo sapiens, OVCAR-8) was 5.88 µM. The GI% [17, 27] was 86.94%, the GI50 [18] was 3.16 µM and the GI50 ([19]; Homo sapiens, RXF 393) was 6.25 µM. It also gave a GI% ([19]; single dose 10 μM, renal carcinoma) of 63.52%, a GI50 [20] of 2.1 µM and a GI50 ([21]; Homo sapiens, DU-145) of 5.15 µM. It also gave a GI% ([21]; single dose 10 μM, prostate carcinoma) of 67.57%, a GI50 ([22]; Homo sapiens, MCF7) of 2.75 µM and a GI% ([22]; single dose 10 μM, breast carcinoma) of 85.98%.
